The numbers were not newly measured in patent US20240390444A1, “COMPOSITIONS AND METHODS LOWERING GLYCEMIC RESPONSE TO IMPROVE SLEEP QUALITY AND/OR SUBSEQUENT BEHAVIOURAL OUTCOMES” (SOCIETE DES PRODUITS NESTLE S.A., priority 2021, published 2024), which cites them from elsewhere.

The structures appear in SMILES notation.

The conditions of the data set: 12.5 mg DNJ in capsule, co-ingestion with maltodextrin.

Consider `OC[C@H]1NC[C@H](O)[C@@H](O)[C@@H]1O` [DNJ, 1-deoxynojirimycin], for which the “reduction of PPGR” value was 14%.
